In patent publication US8222202B2 (priority 2006, dated 2012):
Like-named read-outs stand apart in the source and are kept apart here. Starred links: 1 amine or outer side, 2 acyl side, 3 side chain; linkers in the order of their positions; H or OH if unused. Positions of bridges follow the written chain, without caps; N, C: chain ends. Non-standard residues stand in square brackets, D forms with d. Residues, ends and D or L forms follow the SMILES beside them. Orn(Me) = CN(CCC[C@H](N[*:1])C(=O)[*:2])[*:3]; Ala(2-furyl) = N[C@@H](Cc1ccco1)C(=O)O; X2 = CONC(=O)CC[C@H](N[*:1])C(=O)[*:2]; Orn(iPr) = CC(C)NCCC[C@H](N)C(=O)O; X1 = CCNCCC[C@H](N[*:1])C(=O)[*:2]; Orn(Pr) = CCCNCCC[C@H](N)C(=O)O; 2Thi = N[C@@H](Cc1cccs1)C(=O)O; 3Thi = N[C@@H](Cc1ccsc1)C(=O)O; Aad = N[C@@H](CCCC(=O)O)C(=O)O; Orn = NCCC[C@H](N)C(=O)O; Dab = NCC[C@H](N)C(=O)O

Tests used:
[1] = tested on: anaesthetised Sprague-Dawley male rats; test: in vivo duration of action, blood pressure test in anaesthetised rats; parameters: species or system rat; conditions: ratio of decay rate of diastolic blood pressure response, AVP 0.1 nmol/kg i.v. to equieffective dose of compound; dibenamine-pretreated rats
Experimental: Blood pressure tests were carried out on anaesthetised Sprague-Dawley male rats (weighing 270-300 g) with catheterised jugular vein and carotid artery. The catheterised carotid artery was used to continuously monitor blood pressure and the jugular vein was used for administration of the compounds tested. Rats received intravenous injections of dibenamine prior to dosing to enhance their responsiveness to V1a receptor agonists (cf. Dekanski, J., Br. J. Pharmacol. 1952, 7, 567-572). […] Dosing intervals were set as time for the blood pressure to decrease to a stable baseline.
Determination of duration of action was based on the decay rate of diastolic arterial blood pressure transient increase. Specifically, for an exponential decay of plasma concentration, it can be shown that, if the response is measured beyond the distribution phase, the rate of decay near the EC50 is linear and inversely proportional to the elimination half-life (Rowland, M. and Tozer, T. in “Clinical Pharmacokinetics, Concepts and Applications”, 3rd ed., Lippincott Williams & Wilkins, Philadelphia, 1995).

[2] = target: T1, human oxytocin (hOT) receptor (Homo sapiens, UniProt P30559); test: luciferase-based transcriptional reporter assay, selectivity hOT versus hV1a; type: cell-based
T1 construct: expressed in transfected cells
T1 sequence (P30559 1-389): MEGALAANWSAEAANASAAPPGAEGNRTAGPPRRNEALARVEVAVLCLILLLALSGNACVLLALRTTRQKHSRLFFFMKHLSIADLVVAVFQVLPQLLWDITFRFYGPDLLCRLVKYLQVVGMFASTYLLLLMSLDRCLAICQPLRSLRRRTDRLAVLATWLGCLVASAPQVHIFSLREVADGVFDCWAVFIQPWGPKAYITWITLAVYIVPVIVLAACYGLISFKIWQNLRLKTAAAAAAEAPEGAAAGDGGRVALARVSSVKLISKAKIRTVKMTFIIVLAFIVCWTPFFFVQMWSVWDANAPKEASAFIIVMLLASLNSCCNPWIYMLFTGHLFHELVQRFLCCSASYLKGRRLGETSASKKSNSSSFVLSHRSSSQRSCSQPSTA
Experimental: (§1) Agonist activity of compounds on the hV1a receptor was determined in a transcriptional reporter assay by transiently transfecting a hV1a receptor expression DNA into HEK-293 cells in concert with a reporter DNA containing intracellular calcium responsive promoter elements regulating expression of firefly luciferase. See Boss, V., Talpade, D. J., Murphy, T. J. J. Biol. Chem. 1996, May 3; 271(18), 10429-10432 for further guidance on this assay. […] To determine selectivity, compounds were tested in luciferase-based transcriptional reporter assays expressing the human oxytocin (hOT) receptor. Assays for other receptors (hV2, hV1b, rat V1a and rat V2) were also conducted.
(§2) The EC50 value given is the geometric mean expressed in nanomol/L (nM). Selectivity values are given as EC50 ratios.

hV1a receptor = target: T2, hV1a receptor (Homo sapiens, UniProt P37288); test: hV1a receptor transcriptional reporter (luciferase) agonist assay; type: cell-based
T2 construct: expressed in transfected cells; host or cells: HEK-293
T2 sequence (P37288 whole entry): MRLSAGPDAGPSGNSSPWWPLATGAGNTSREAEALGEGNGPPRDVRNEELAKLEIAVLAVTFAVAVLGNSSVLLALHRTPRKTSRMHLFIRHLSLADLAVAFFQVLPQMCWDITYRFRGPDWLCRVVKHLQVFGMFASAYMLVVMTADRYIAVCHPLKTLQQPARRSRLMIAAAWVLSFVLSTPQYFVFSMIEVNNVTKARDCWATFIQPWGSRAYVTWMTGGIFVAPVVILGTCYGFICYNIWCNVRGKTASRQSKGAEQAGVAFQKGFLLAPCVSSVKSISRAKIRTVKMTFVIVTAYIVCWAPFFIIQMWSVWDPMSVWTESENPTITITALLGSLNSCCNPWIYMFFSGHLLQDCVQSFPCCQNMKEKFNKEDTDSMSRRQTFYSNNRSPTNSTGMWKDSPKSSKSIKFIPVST
Experimental: as §1, §2

[3] = HEK-293 cells transiently transfected with hV1a receptor, 5 hours exposure, geometric mean, read-out: EC50 hV1a receptor
[4] = class symbol, agonist efficacy at hOT receptor compared to AVP

| Compound | in vivo duration relative to AVP [1] | selectivity hOT/hV1a [2] | EC50 (hV1a receptor) [nM] | selectivity hOT/hV1a ([2]; EC50 ratio) | EC50 (hV1a receptor; [3]) [nM] | selectivity hOT/hV1a [2, 4] |
| --- | --- | --- | --- | --- | --- | --- |
| CC[C@H](C)[C@@H]1NC(=O)[C@H](Cc2ccccc2)NC(=O)[C@@H](N)CSSC[C@@H](C(=O)N2CCC[C@H]2C(=O)N[C@@H](CCN)C(=O)NCC(N)=O)NC(=O)[C@H](CC(N)=O)NC(=O)[C@H](CC(N)=O)NC1=O [Compound 3] (H-CFINNCP[Dab]G-NH2; disulfide 1-6) | 1.7 | + (key: +: selective hV1a receptor agonist; EC50 hOT/hV1a ratio not determined due to very low agonist efficacy (<30% compared to AVP) at the hOT receptor) | 1.47 | – | – | – |
| CC[C@H](C)[C@@H]1NC(=O)[C@H](Cc2ccccc2)NC(=O)[C@@H](N)CSSC[C@@H](C(=O)N2CCC[C@H]2C(=O)N[C@@H](CCCNC(C)C)C(=O)NCC(N)=O)NC(=O)[C@H](CC(N)=O)NC(=O)[C@H](CCC(N)=O)NC1=O [Compound 5] (H-CFIQNCP[Orn(iPr)]G-NH2; disulfide 1-6; N-terminus and C-terminus assumed) | 1.9 | – | 0.25 | 117 | – | – |
| CCNCCC[C@H](NC(=O)[C@@H]1CCCN1C(=O)[C@@H]1CSSC[C@H](N)C(=O)N[C@@H](Cc2ccccc2)C(=O)N[C@@H]([C@@H](C)CC)C(=O)N[C@@H](CCC(N)=O)C(=O)N[C@@H](CC(N)=O)C(=O)N1)C(=O)NCC(N)=O [Compound 6] (H-CFIQNCP[X1]G-NH2; disulfide 1-6; N-terminus and C-terminus assumed) | 1.9 | – | 0.29 | 86 | – | – |
| CC[C@H](C)[C@@H]1NC(=O)[C@H](Cc2ccccc2)NC(=O)[C@@H](N)CSSC[C@@H](C(=O)N2CCC[C@H]2C(=O)N[C@@H](CCCN)C(=O)NCC(N)=O)NC(=O)[C@H](CC(N)=O)NC(=O)[C@H](CCCC(N)=O)NC1=O [Compound 9] (H-CFI[Aad](NH2)NCP[Orn]G-NH2; disulfide 1-6) | 1.5 | + (key: +: selective hV1a receptor agonist; EC50 hOT/hV1a ratio not determined due to very low agonist efficacy (<30% compared to AVP) at the hOT receptor) | 0.68 | – | – | – |
| CC[C@H](C)[C@@H]1NC(=O)[C@H](Cc2ccccc2)NC(=O)[C@@H](N)CSSC[C@@H](C(=O)N2CCC[C@H]2C(=O)N[C@@H](CCCN)C(=O)NCC(N)=O)NC(=O)[C@H](CC(N)=O)NC(=O)[C@H](CCC(=O)NOC)NC1=O [Compound 10] (H-CFI[X2]NCP[Orn]G-NH2; disulfide 1-6; N-terminus and C-terminus assumed) | 2.3 | – | – | 11 | 1.15 | – |
| CC[C@H](C)[C@@H]1NC(=O)[C@H](Cc2ccccc2)NC(=O)[C@@H](N)CSSC[C@@H](C(=O)N2CCC[C@H]2C(=O)N[C@@H](CCN)C(=O)NCC(N)=O)NC(=O)[C@H](CC(N)=O)NC(=O)[C@H](CCCC(N)=O)NC1=O [Compound 11] (H-CFI[Aad](NH2)NCP[Dab]G-NH2; disulfide 1-6) | 1.9 | + (key: +: selective hV1a receptor agonist; EC50 hOT/hV1a ratio not determined due to very low agonist efficacy (<30% compared to AVP) at the hOT receptor) | 2.96 | – | – | – |
| CC[C@H](C)[C@@H]1NC(=O)[C@H](Cc2ccsc2)NC(=O)[C@@H](N)CSSC[C@@H](C(=O)N2CCC[C@H]2C(=O)N[C@@H](CCN)C(=O)NCC(N)=O)NC(=O)[C@H](CC(N)=O)NC(=O)[C@H](CCC(N)=O)NC1=O [Compound 15] (H-C[3Thi]IQNCP[Dab]G-NH2; disulfide 1-6) | 2.2 | – | – | 43 | 0.61 | – |
| CC[C@H](C)[C@@H]1NC(=O)[C@H](Cc2ccccc2)NC(=O)[C@@H](N)CSSC[C@@H](C(=O)N2CCC[C@H]2C(=O)N[C@@H](CCCN)C(=O)NCC(N)=O)NC(=O)[C@H](CC(N)=O)NC(=O)[C@H](CCC(=O)NC)NC1=O [Compound 19] (H-CFIE(NHMe)NCP[Orn]G-NH2; disulfide 1-6) | 1.6 | – | – | – | 5.99 | + (selective hV1a receptor agonist; EC50 hOT/hV1a ratio not determined due to very low agonist efficacy (<30% compared to AVP) at the hOT receptor) |
| CC[C@H](C)[C@@H]1NC(=O)[C@H](Cc2ccco2)NC(=O)[C@@H](N)CSSC[C@@H](C(=O)N2CCC[C@H]2C(=O)N[C@@H](CCCN)C(=O)NCC(N)=O)NC(=O)[C@H](CC(N)=O)NC(=O)[C@H](CCC(N)=O)NC1=O [Compound 25] (H-C[Ala(2-furyl)]IQNCP[Orn]G-NH2; disulfide 1-6) | 2.0 | 23 | 1.4 | – | – | – |
| CC[C@H](C)[C@@H]1NC(=O)[C@H](Cc2ccco2)NC(=O)[C@@H](N)CSSC[C@@H](C(=O)N2CCC[C@H]2C(=O)N[C@@H](CCN)C(=O)NCC(N)=O)NC(=O)[C@H](CC(N)=O)NC(=O)[C@H](CCC(N)=O)NC1=O [Compound 26] (H-C[Ala(2-furyl)]IQNCP[Dab]G-NH2; disulfide 1-6; N-terminus and C-terminus assumed) | 2.0 | – | – | 28 | 2.24 | – |
| CC[C@H](C)[C@@H]1NC(=O)[C@H](Cc2ccccc2)NC(=O)[C@@H](N)CSSC[C@@H](C(=O)N2CCC[C@H]2C(=O)N[C@@H](CCCN)C(=O)NCC(N)=O)NC(=O)[C@H](CC(N)=O)NC(=O)[C@H](CC(N)=O)NC1=O [Compound 30] (H-CFINNCP[Orn]G-NH2; disulfide 1-6; N-terminus and C-terminus assumed) | 1.7 | – | – | – | 1.45 | + (selective hV1a receptor agonist; EC50 hOT/hV1a ratio not determined due to very low agonist efficacy (<30% compared to AVP) at the hOT receptor) |
| CC[C@H](C)[C@@H]1NC(=O)[C@H](Cc2cccs2)NC(=O)[C@@H](N)CSSC[C@@H](C(=O)N2CCC[C@H]2C(=O)N[C@@H](CCCNC(C)C)C(=O)NCC(N)=O)NC(=O)[C@H](CC(N)=O)NC(=O)[C@H](CCC(N)=O)NC1=O [Compound 34] (H-C[2Thi]IQNCP[Orn(iPr)]G-NH2; disulfide 1-6) | 2.0 | 72 | 0.73 | – | – | – |
| CC[C@H](C)[C@@H]1NC(=O)[C@H](Cc2ccccc2)NC(=O)[C@@H](N)CSSC[C@@H](C(=O)N2CCC[C@H]2C(=O)N[C@@H](CCCNC)C(=O)NCC(N)=O)NC(=O)[C@H](CC(N)=O)NC(=O)[C@H](CCC(N)=O)NC1=O [Compound 39] (H-CFIQNCP[Orn(Me)]G-NH2; disulfide 1-6; N-terminus and C-terminus assumed) | 1.9 | – | 0.21 | 178 | – | – |
| CCCNCCC[C@H](NC(=O)[C@@H]1CCCN1C(=O)[C@@H]1CSSC[C@H](N)C(=O)N[C@@H](Cc2ccccc2)C(=O)N[C@@H]([C@@H](C)CC)C(=O)N[C@@H](CCC(N)=O)C(=O)N[C@@H](CC(N)=O)C(=O)N1)C(=O)NCC(N)=O [Compound 40] (H-CFIQNCP[Orn(Pr)]G-NH2; disulfide 1-6; N-terminus and C-terminus assumed) | 2.0 | – | 0.27 | 88 | – | – |
| CC[C@H](C)[C@@H]1NC(=O)[C@H](Cc2ccccc2)NC(=O)[C@@H](N)CSSC[C@@H](C(=O)N2CCC[C@H]2C(=O)N[C@@H](CCCNC(C)C)C(=O)NCC(N)=O)NC(=O)[C@H](CC(N)=O)NC(=O)[C@H](CC(N)=O)NC1=O [Compound 41] (H-CFINNCP[Orn(iPr)]G-NH2; disulfide 1-6) | 2.6 | 53 | 0.98 | – | – | – |
| CC[C@H](C)[C@@H]1NC(=O)[C@H](Cc2ccccc2)NC(=O)[C@@H](N)CSSC[C@@H](C(=O)N2CCC[C@H]2C(=O)N[C@@H](CCCNC)C(=O)NCC(N)=O)NC(=O)[C@H](CC(N)=O)NC(=O)[C@H](CC(N)=O)NC1=O [Compound 46] (H-CFINNCP[Orn(Me)]G-NH2; disulfide 1-6; N-terminus and C-terminus assumed) | 2.1 | – | – | – | 2.41 | + (selective hV1a receptor agonist; EC50 hOT/hV1a ratio not determined due to very low agonist efficacy (<30% compared to AVP) at the hOT receptor) |
| CCNCCC[C@H](NC(=O)[C@@H]1CCCN1C(=O)[C@@H]1CSSC[C@H](N)C(=O)N[C@@H](Cc2ccccc2)C(=O)N[C@@H]([C@@H](C)CC)C(=O)N[C@@H](CC(N)=O)C(=O)N[C@@H](CC(N)=O)C(=O)N1)C(=O)NCC(N)=O [Compound 47] (H-CFINNCP[X1]G-NH2; disulfide 1-6; N-terminus and C-terminus assumed) | 1.6 | – | – | – | 0.99 | + (selective hV1a receptor agonist; EC50 hOT/hV1a ratio not determined due to very low agonist efficacy (<30% compared to AVP) at the hOT receptor) |
